Measured values as given in article PMC9206137, “Synergistic anti-SARS-CoV-2 activity of repurposed anti-parasitic drug combinations” (BMC Pharmacology & Toxicology, 2022).
Several values for one entry are separate records, joined by “and”; a condition that tells them apart may be missing. Equal values may be shown once.

Experiments:
[1] = test system: SARS-CoV-2; assay: microbe, parasite or virus in culture; assay type: cell-based; conditions: for % inhibition: Calu-3 cells
[2] = test system: SARS-CoV-2; assay: Antiviral activity against SARS-CoV-2 in Vero E6 cells, one-step qRT-PCR (single drugs, two-drug combinations, synergy analysis); conditions: for %inhibition (qRT-PCR) / % inhibition: replicates; for % inhibition: Vero E6 cells
[3] = test system: SARS-CoV-2; assay: Antiviral activity against SARS-CoV-2 in Vero E6 cells, plaque assay; assay type: cell-based
[4] = test system: Calu-3 cells; assay: Cell viability assay (MTT) in Calu-3 cells; conditions: replicates; for %cell viability: Calu-3; for cell viability: Calu-3 cells
Experimental: (§1) Subsequently, the cell viability was assessed using MTT dyes (Invitrogen) in duplicate (Supplementary file 1). The procedure was described elsewhere. The viability of drug-treated cells was expressed as percent cell viability relative to 0.5% DMSO-treated cells.

[5] = Cell viability assay (MTT) in Calu-3 cells; conditions: human, Calu-3 cells
Experimental: as §1

[6] = Cell viability assay (MTT) in Vero E6 cells; conditions: African green monkey, Vero E6 cells
Experimental: as §1

[7] = test system: Vero E6 cells; assay: Cell viability assay (MTT) in Vero E6 cells; conditions: replicates; for %cell viability: Vero E6; for cell viability: Vero E6 cells
Experimental: as §1

**Q.** What does the source list for `O=C(Nc1ccc([N+](=O)[O-])cc1Cl)c1cc(Cl)ccc1O` [Niclosamide, niclosamide]?
**A.** SI ([1]; Calu-3): 28.1; %inhibition (plaque assay) ([1]; Calu-3, niclosamide 0.039063 uM, replicates): 23.81% (2×) and 35.24%; %inhibition (plaque assay) ([1]; Calu-3, niclosamide 0.078125 uM, replicates): 35.24% and 39.05%; %inhibition (plaque assay) ([1]; Calu-3, niclosamide 0.15625 uM, replicates): 35.24% and 42.86% and 20.00%; %inhibition (plaque assay) ([1]; Calu-3, niclosamide 0.3125 uM, replicates): 69.52% and 61.90%; %inhibition (plaque assay) ([1]; Calu-3, niclosamide 0.625 uM, replicates): 61.90%; %inhibition (plaque assay) ([1]; Calu-3, niclosamide 1.25 uM, replicates): 69.52% and 80.95%; % inhibition ([1]; Niclosamide 0.05 uM alone, replicates): 33.33% and 13.33% (2×); % inhibition ([1]; Niclosamide 0.10 uM alone, replicates): 40.00%; % inhibition ([1]; Niclosamide 0.40 uM alone, replicates): 70.00%; inhibition at 0.039063 µM ([1]; Severe acute respiratory syndrome coronavirus 2, Calu-3, Calu-3, niclosamide 0.039063 uM, replicates, read-out: %inhibition (plaque assay)): 31.4%; inhibition at 0.078125 µM ([1]; Severe acute respiratory syndrome coronavirus 2, Calu-3, Calu-3, niclosamide 0.078125 uM, replicates, read-out: %inhibition (plaque assay)): 31.4%; inhibition at 0.1 µM ([1]; Severe acute respiratory syndrome coronavirus 2, Calu-3, Calu-3, niclosamide 0.1 uM alone): 46.7 ± 6.67%; inhibition at 0.2 µM ([1]; Severe acute respiratory syndrome coronavirus 2, Calu-3, Calu-3, niclosamide 0.2 uM alone): 53.3 ± 6.67%; inhibition at 0.3125 µM ([1]; Severe acute respiratory syndrome coronavirus 2, Calu-3, Calu-3, niclosamide 0.3125 uM, replicates, read-out: %inhibition (plaque assay)): 73.3%; inhibition at 0.4 µM ([1]; Severe acute respiratory syndrome coronavirus 2, Calu-3, Calu-3, niclosamide 0.4 uM alone): 61.1 ± 8.39%; inhibition at 0.625 µM ([1]; Severe acute respiratory syndrome coronavirus 2, Calu-3, Calu-3, niclosamide 0.625 uM, replicates, read-out: %inhibition (plaque assay)): 65.7%; inhibition at 1.25 µM ([1]; Severe acute respiratory syndrome coronavirus 2, Calu-3, Calu-3, niclosamide 1.25 uM, replicates, read-out: %inhibition (plaque assay)): 73.3%; inhibition at 0.1 µM ([1]; Severe acute respiratory syndrome coronavirus 2, Calu-3, Calu-3 cells, Niclosamide 0.10 uM alone, replicates): 53.3%; inhibition at 0.2 µM ([1]; Severe acute respiratory syndrome coronavirus 2, Calu-3, Calu-3 cells, Niclosamide 0.20 uM alone, replicates): 53.3%; inhibition at 0.4 µM ([1]; Severe acute respiratory syndrome coronavirus 2, Calu-3, Calu-3 cells, Niclosamide 0.40 uM alone, replicates): 60%; IC50 ([1]; Severe acute respiratory syndrome coronavirus 2, Calu-3, 500 TCID50, plaque assay, single drug): 200 nM; %inhibition (qRT-PCR) ([2]; Vero E6, niclosamide 0.00390625 uM): 21.23% and 16.04% and 7.08%; %inhibition (qRT-PCR) ([2]; Vero E6, niclosamide 0.0078125 uM): 27.36% and 22.17% and 24.53%; %inhibition (qRT-PCR) ([2]; Vero E6, niclosamide 0.015625 uM): 29.25% and 17.92% and 28.30%; %inhibition (qRT-PCR) ([2]; Vero E6, niclosamide 0.03125 uM): 29.72% and 33.96% and 20.28%; %inhibition (qRT-PCR) ([2]; Vero E6, niclosamide 0.0625 uM): 52.36% and 36.32% and 72.26%; %inhibition (qRT-PCR) ([2]; Vero E6, niclosamide 0.125 uM): 95.05% and 87.83% and 93.92%; % inhibition ([2]; Niclosamide 0.01125 uM alone): 6.05% and 30.26% and 19.89% and 3.41%; % inhibition ([2]; Niclosamide 0.0225 uM alone): 31.70% and 37.15% and 50.00%; % inhibition ([2]; Niclosamide 0.045 uM alone): 62.37% and 59.41% and 53.57%; % inhibition ([2]; Niclosamide 0.09 uM alone): 75.85% and 79.12% and 97.76% and 97.32%; IC50 ([2]; read-out: IC50 (μM) qRT-PCR, Vero E6, MOI 0.01, 48 hours, single drug): 0.043 µM; inhibition at 0.00390625 µM ([3]; Severe acute respiratory syndrome coronavirus 2, Vero C1008, Vero E6, niclosamide 0.00390625 uM, replicates): 11.5%; inhibition at 0.015625 µM ([3]; Severe acute respiratory syndrome coronavirus 2, Vero C1008, Vero E6, niclosamide 0.015625 uM, replicates): 23.2%; inhibition at 0.03125 µM ([3]; Severe acute respiratory syndrome coronavirus 2, Vero C1008, Vero E6, niclosamide 0.03125 uM, replicates): 23.7%; inhibition at 0.0625 µM ([3]; Severe acute respiratory syndrome coronavirus 2, Vero C1008, Vero E6, niclosamide 0.0625 uM, replicates): 40.1%; inhibition at 0.125 µM ([3]; Severe acute respiratory syndrome coronavirus 2, Vero C1008, Vero E6, niclosamide 0.125 uM, replicates): 84.6%; IC50 ([3]; Severe acute respiratory syndrome coronavirus 2, Vero C1008, Vero E6, MOI 0.01, 48 hours, single drug): 0.049 µM; %inhibition (plaque assay) ([3]; Vero E6, niclosamide 0.00390625 uM, replicates): 9.45% and 9.72%; %inhibition (plaque assay) ([3]; Vero E6, niclosamide 0.0078125 uM, replicates): 5.39% and 21.29% and 14.01%; %inhibition (plaque assay) ([3]; Vero E6, niclosamide 0.015625 uM, replicates): 25.26% and 23.12%; %inhibition (plaque assay) ([3]; Vero E6, niclosamide 0.03125 uM, replicates): 28.44% and 31.03%; %inhibition (plaque assay) ([3]; Vero E6, niclosamide 0.0625 uM, replicates): 40.15% and 40.02%; %inhibition (plaque assay) ([3]; Vero E6, niclosamide 0.125 uM, replicates): 97.12% and 94.56%; %cell viability ([4]; niclosamide 0.019531 uM): 102.92%; %cell viability ([4]; niclosamide 0.039063 uM): 104.17%; %cell viability ([4]; niclosamide 0.078125 uM): 109.86%; %cell viability ([4]; niclosamide 0.15625 uM): 107.64%; %cell viability ([4]; niclosamide 0.3125 uM): 99.17%; %cell viability ([4]; niclosamide 0.625 uM): 104.86%; %cell viability ([4]; niclosamide 1.25 uM): 97.36%; %cell viability ([4]; niclosamide 2.5 uM): 82.64%; %cell viability ([4]; niclosamide 5 uM): 54.44%; cell viability ([4]; Niclosamide 0.05 uM alone): 96.54 and 92.66; cell viability ([4]; Niclosamide 0.10 uM alone): 89.85 and 85.75; cell viability ([4]; Niclosamide 0.20 uM alone): 98.27 and 86.39; cell viability ([4]; Niclosamide 0.40 uM alone): 103.02 and 98.49; CC50 at 48 h [5]: 5620 nM; viability at 48 h, 0.019531 uM ([5]; %cell viability, Calu-3, niclosamide 0.019531 uM, replicates): 92.2%; viability at 48 h, 0.039063 uM ([5]; %cell viability, Calu-3, niclosamide 0.039063 uM, replicates): 102%; viability at 48 h, 0.078125 uM ([5]; %cell viability, Calu-3, niclosamide 0.078125 uM, replicates): 109%; viability at 48 h, 0.15625 uM ([5]; %cell viability, Calu-3, niclosamide 0.15625 uM, replicates): 100%; viability at 48 h, 0.3125 uM ([5]; %cell viability, Calu-3, niclosamide 0.3125 uM, replicates): 100%; viability at 48 h, 0.625 uM ([5]; %cell viability, Calu-3, niclosamide 0.625 uM, replicates): 107%; viability at 48 h, 1.25 uM ([5]; %cell viability, Calu-3, niclosamide 1.25 uM, replicates): 96.5%; viability at 48 h, 2.5 uM ([5]; %cell viability, Calu-3, niclosamide 2.5 uM, replicates): 85%; viability at 48 h, 5 uM ([5]; %cell viability, Calu-3, niclosamide 5 uM, replicates): 59.4%; CC50 at 48 h [6]: 290 nM; viability at 48 h, 0.00390625 uM ([6]; %cell viability, Vero E6, niclosamide 0.00390625 uM, replicates): 98.6%; viability at 48 h, 0.0078125 uM ([6]; %cell viability, Vero E6, niclosamide 0.0078125 uM, replicates): 97.7%; viability at 48 h, 0.015625 uM ([6]; %cell viability, Vero E6, niclosamide 0.015625 uM, replicates): 91.7%; viability at 48 h, 0.03125 uM ([6]; %cell viability, Vero E6, niclosamide 0.03125 uM, replicates): 92.7%; viability at 48 h, 0.0625 uM ([6]; %cell viability, Vero E6, niclosamide 0.0625 uM, replicates): 95%; viability at 48 h, 0.125 uM ([6]; %cell viability, Vero E6, niclosamide 0.125 uM, replicates): 91.3%; viability at 48 h, 0.25 uM ([6]; %cell viability, Vero E6, niclosamide 0.25 uM, replicates): 59.2%; viability at 48 h, 0.5 uM ([6]; %cell viability, Vero E6, niclosamide 0.5 uM, replicates): 20.1%; %cell viability ([7]; niclosamide 0.00390625 uM): 92.84%; %cell viability ([7]; niclosamide 0.0078125 uM): 91.90%; %cell viability ([7]; niclosamide 0.015625 uM): 92.98%; %cell viability ([7]; niclosamide 0.03125 uM): 90.36%; %cell viability ([7]; niclosamide 0.0625 uM): 90.95%; %cell viability ([7]; niclosamide 0.125 uM): 88.11%; %cell viability ([7]; niclosamide 0.25 uM): 54.41%; %cell viability ([7]; niclosamide 0.5 uM): 25.91%; cell viability ([7]; Niclosamide 0.01125 uM alone): 91.66 and 92.98; cell viability ([7]; Niclosamide 0.0225 uM alone): 92.73 and 90.36; cell viability ([7]; Niclosamide 0.045 uM alone): 94.97 and 90.95; cell viability ([7]; Niclosamide 0.09 uM alone): 89.48 and 90.50
